Data taken from patent publication US20230302082A1, “AGENT FOR REVERSIBLE OPENING OF NEURAL VASCULAR BARRIER” (YAMAGUCHI UNIVERSITY, priority 2020, published 2023).
Structures can show the parent of a compound that is named as a salt.

Assays:
[1] = test system: neural vascular barrier; assay: Uptake of intravenously administered doxorubicin into cerebrum, liver and kidney with or without preadministration of CypA (doxorubicin fluorescence); format: in vivo, mouse
Procedure: Further, fluorescence emitted by doxorubicin was used to evaluate the uptake of doxorubicin into the cerebrum, the liver and the kidney. […] Fujifilm Wako Pure Chemical Corp.), an anticancer drug with low intracerebral penetration, was injected into caudal veins of mice with or without pre-injection of CypA (200 μg/kg). Pre-injection of CypA was performed intravenously 3 hours prior to the injection of doxorubicin. Mice were sacrificed 3 hours after the injection of doxorubicin hydrochloride, and the cerebrum, the liver, and the kidney were collected and embedded and frozen in OCT compound. Next, frozen sections of 30 μm thickness were prepared and observed under an LSM710 laser confocal microscope (Carl Zeiss AG).

[2] = test system: mouse retinal vasculature; assay: Claudin-5 expression in endothelial cell membranes of the retinal vasculature after intravenous CypA (immunofluorescence); format: in vivo; details: mouse retina, single intravenous injection 200 μg/kg
From the text: Based on the results of Example 1, a change in the barrier function caused by CypA administration was examined in vivo using a mouse retinal tissue. Note that the retina is a tissue that is formed as an outgrowth of the central neural system during the process of ontogeny and is a part of the central neural system like the brain. Since the vascular system of the retina can be two-dimensionally observed and evaluated over the entire length in the longitudinal direction, the retina was used as an analysis material representing the central neural system in the present example.
(§1) Seven-week-old male C57B6/N mice (Japan SLC, Inc.) were given a single intravenous injection (200 μg/kg) of CypA. A change in the expression level of claudin-5 localized in the endothelial cell membranes of the retinal vasculature and permeability of the retinal vasculature were measured 3, 6, and 24 hours after the […] injection. The change in the expression of claudin-5 was measured by immunofluorescence staining using the rabbit polyclonal antibodies against claudin-5 in the same manner as in Example 1. The above-mentioned measurement of the permeability of the retinal vasculature was performed as follows.

[3] = test system: mouse brain microvascular endothelial cell line bEnd.3 cells; assay: Immunofluorescence staining and quantification of claudin-5 signals on the cell membranes of monolayer-cultured bEnd.3 cells; format: cell-based
Procedure: (§2) In an in vitro system, mouse brain microvascular endothelial cell line bEnd.3 cells (obtained from the American Type Culture Collection) were grown as a monolayer at 37° C. under 5% CO^2 in Dulbecco's modified Eagle's medium containing 4500 mg/L glucose (Sigma-Aldrich) supplemented with 10% fetal bovine serum (FBS). CypA (200, 300 or 400 ng/ml: BioVendor R&D) was added to the culture supernatant of the monolayer-cultured bEnd.3 cells, followed by incubation for 3 hours. Subsequently, expression changes of claudin-5 in the bEnd.3 cells were observed by immunofluorescence staining, and claudin-5 signals on the cell membranes were quantified. Further, TEER, an index of vascular barrier function, was measured in the bEnd.3 cell monolayer.
The immunofluorescence staining was performed as follows. First, the cultured bEnd.3 cells were fixed with 100% methanol for 5 min at room temperature and incubated with 10% non-immune goat serum (Invitrogen) for 30 minutes to block non-specific binding of antibodies. Next, the cells were reacted with rabbit polyclonal antibodies against claudin-5 (1/25 dilution, Invitrogen) at 4° C. overnight. After washing with phosphate-buffered saline (PBS), the cells were incubated with Alexa Fluor 488 goat anti-rabbit IgG (1/200 dilution, Eugene) for 1 hour at room temperature under light protection. […] For a quantitative analysis, fluorescence intensities of claudin-5 on the plasma membranes were measured using an operation menu installed in LSMS Pascal6, 7.3. […] Fluorescence intensities were then quantified at points on the cell membranes that intersected the drawn straight lines. The mean value of the fluorescence intensities was calculated as an expression level of claudin-5 on the cell membranes of each monolayer at approximately 80 points. […]
The immunofluorescence staining, the quantification of the claudin-5 signals on the cell membranes, and the measurement of TEER in the bEnd.3 cell monolayer were performed in the same manner as in Example 1 except that CypA (300 ng/ml: BioVendor R&D) lacking PPlase activity was used as CypA. […]

[4] = test system: mouse retinal vasculature; assay: Permeability of the retinal vasculature (leakage of injected tracer dye, index of blood-retinal barrier function); format: in vivo; details: mouse retina, single intravenous injection 200 μg/kg
Procedure: as §1
First, 500 μL of PBS containing 100 μg/mL Hoechst dye H33258 (molecular weight 534 Da, Sigma-Aldrich) and 1 mg/mL tetramethylrhodamine-conjugated lysine-fixable dextran (molecular weight 10,000 Da, Thermo Fisher Scientific) was injected into the left ventricle as a tracer dye. After injection of the Hoechst dye, eyes were enucleated and immediately fixed with 4% paraformaldehyde (PFA) for 15 min at room temperature under light protection, thereby preparing retinal flat mounts. They were mounted in a fluorescent mounting medium, and leakage of the injected tracer was observed under a Zeiss LSM510 META laser confocal microscope (Carl Zeiss AG) to measure the permeability of the retinal vasculature (an index of blood-retinal barrier function). Experiments were performed independently 3 times or more.

[5] = test system: bEnd.3 cell monolayer; assay: TEER (index of vascular barrier function) of the bEnd.3 cell monolayer; format: cell-based, mouse
Procedure: as §2
The immunofluorescence staining, the quantification of the claudin-5 signals on the cell membranes, and the measurement of TEER in the bEnd.3 cell monolayer were performed in the same manner as in Example 1 except that CypA (300 ng/ml: BioVendor R&D) lacking PPlase activity was used as CypA.
In order to evaluate the opening effect of CypA on the neural vascular barrier over time, the same experiment as in Example 1 was performed while changing the treatment time of CypA. Specifically, CypA at a concentration of 300 ng/ml was applied to the cells, followed by incubation for 1, 3, 6, 9, and 12 hours. Then, the cells were subjected to the immunofluorescence staining, the quantification of the claudin-5 signals on the cell membranes, and the measurement of TEER in the bEnd.3 cell monolayer.

Compound	fluorescent signals of doxorubicin in the liver and the kidney ([1]; mouse, doxorubicin hydrochloride 6.25 mg/kg i.v., 3 hours after injection, with or without pre-injection of CypA)	doxorubicin fluorescence signal in the cerebrum ([1]; mouse, doxorubicin hydrochloride 6.25 mg/kg i.v., 3 hours after injection, with preadministration of CypA 200 μg/kg i.v. 3 hours before)	doxorubicin fluorescence signal in the cerebrum ([1]; mouse, doxorubicin hydrochloride 6.25 mg/kg i.v., 3 hours after injection, without preadministration of CypA)	expression level of claudin-5 in the cell membranes of the peripheral microvascular endothelial cells ([2]; 3 hours (FIG. 4a))	expression level of claudin-5 in the cell membranes of the peripheral microvascular endothelial cells ([2]; 24 hours (FIG. 4a))	claudin-5 level on the cell membranes ([3]; CypA 300 ng/ml, 3 hours after treatment (FIG. 3a, 3b))	claudin-5 level on the cell membranes ([3]; CypA 300 ng/ml, 6 hours (FIG. 3a, 3b))	claudin-5 level on the cell membranes ([3]; CypA 200, 300 or 400 ng/ml, 3 hours after treatment (FIG. 1a, 1B))	effect of CypA preadministration on delivery of doxorubicin to the neural tissue parenchyma ([1]; mouse cerebrum, CypA 200 μg/kg i.v. 3 hours before doxorubicin hydrochloride 6.25 mg/kg i.v.)	effect of CypA pre-injection on intensities of doxorubicin fluorescence signals in the liver and the kidney ([1]; mouse, CypA 200 μg/kg i.v. 3 hours before doxorubicin hydrochloride 6.25 mg/kg i.v.)	leakage of the injected tracer dye ([4]; 3 hours (FIG. 4b))	leakage of the injected tracer dye ([4]; 6 hours (FIG. 4b))	leakage of the injected tracer dye ([4]; 24 hours (FIG. 4b))	barrier function (TEER) ([5]; CypA 300 ng/ml, 3 hours after treatment (FIG. 3c))	barrier function (TEER) ([5]; CypA 300 ng/ml, 6 hours (FIG. 3c))	barrier function (TEER) ([5]; CypA 200, 300 or 400 ng/ml, 3 hours after treatment (FIG. 1c))
COc1cccc2c1C(=O)c1c(O)c3c(c(O)c1C2=O)C[C@@](O)(C(=O)CO)C[C@@H]3O[C@H]1C[C@H](N)[C@H](O)[C@H](C)O1 [doxorubicin, Doxorubicin hydrochloride]	strong fluorescent signals of doxorubicin were detected	significant doxorubicin fluorescence signals were detected	no doxorubicin fluorescence signal was detected	–	–	–	–	–	–	–	–	–	–	–	–	–
Cyclophilin A [CypA]	–	–	–	decrease	recovered to a physiological level	decreased significantly	recovered to the level prior to the CypA stimulation	significantly reduced	allowed the intravenously administered doxorubicin to pass through the neural vascular barrier and reach the neural tissue parenchyma	not significantly affected	increased	decreased after 6 hours as compared with after 3 hours	returned to an undetectable physiological level	significantly decreased	recovered to the state prior to the CypA stimulation	significant reduction in the barrier function
